From article PMC6105642, “A platform for discovery of functional cell-penetrating peptides for efficient multi-cargo intracellular delivery” (Scientific Reports, 2018)
Square brackets hold non-standard residues; d marks the D form. Peptide text beside a SMILES is read from it.

Assays:
T47D cells = assay: ^DPMIα delivery cell viability assay; type: cell-based, human; settings: 48 h incubation; presence of sera; resazurin reduction potential
Experimental: A variety of cell types and cargos confirmed the potency and versatility of Phylomer CPP delivery. Different functional assays applied readouts designed to directly quantify delivery of an established biologic cargo. […] CPP_^DPMIα synthetic peptides (Supplementary Table 7 and Fig. 3a, cargo 2) reduced viability of human breast tumor cells (T47D) in the presence of sera, indicating the successful delivery of ^DPMIα into the cells (Fig. 5a).
All cell viability studies were performed in the presence of FCS. Cells were seeded at 2.5–5 × 10^3 cells/well, depending on cell line, in 96-well plates (PAP assays: CHO-K1 at 3 × 10^3 cells/well; peptide cytotoxicity assays: CHO-K1 at 5 × 10^3 cells/well; Bouganin assay: CHO-K1 and CHO-K1/EGFR at 2.5 × 10^3 cells/well; ^DPMIα assays: T47D at 5 × 10^3 cells/well; Omomyc assays: all cell lines at 5 × 10^3 cells/well). In brief, adherent cells were allowed to adhere for 24 h prior to the addition of treatments whereas suspension cell lines were treated immediately following seeding. […] Membrane integrity was assessed by the release of LDH into the media via the CytoTox-ONE reagent (Promega). Metabolic activity was measured either by resazurin reduction potential using PrestoBlue (Life Technologies) or by ATP activity using CellTitre-Glo (Promega). […] IC50 values were calculated using Prism (version 7.0a, GraphPad).

T47D (breast cancer) = assay: Omomyc cell viability assay (ATP activity); type: cell-based, human; settings: 48 h
Excerpt: (§1) Next 1746c27 was used to deliver the Omomyc[45],[46] protein cargo. This well-characterized dominant-negative protein directly binds and inhibits the transcription factor MYC. A master regulator of critical cellular processes, MYC is an intracellular oncoprotein target deemed “undruggable” using conventional biological therapeutics. Treatment with recombinant 1746c27_Omomyc (Fig. 3a, cargo 4) induced a dose-dependent decrease in cell viability in MYC-dependent blood cancer cell lines and T47D cells in the presence of sera. […] The potency of 1746c27_Omomyc was greater than small molecule inhibitors of MYC, 10058-F4 and KJ-Pyr9 (Supplementary Fig. 8).
(§2) All cell viability studies were performed in the presence of FCS. […] Membrane integrity was assessed by the release of LDH into the media via the CytoTox-ONE reagent (Promega). Metabolic activity was measured either by resazurin reduction potential using PrestoBlue (Life Technologies) or by ATP activity using CellTitre-Glo (Promega). […] IC50 values were calculated using Prism (version 7.0a, GraphPad).

[1] = tested on: HL-60 (promyelocytic leukemia); assay: Omomyc cell viability assay (ATP activity); type: cell-based; settings: 48 h
Excerpt: as §1, §2

AMO-1 (plasmacytoma) = assay: Omomyc cell viability assay (ATP activity); type: cell-based; settings: 48 h
Excerpt: as §1, §2

CHO-K1 cells = assay: Peptide cytotoxicity, cell viability by resazurin reduction; type: cell-based; settings: CPP alone up to 50 µM, 24 h and 48 h, presence of sera
Experimental: To ensure that 1746 and 1746c27 are not innately cytotoxic, we assessed their effect on cell viability. CHO-K1 cells were treated with CPPs in the presence of sera at 24 h (Fig. 4a) and 48 h (Fig. 4b). The effects of CPPs on cellular membrane stability were assessed using a LDH enzymatic assay, measuring LDH release at 2 h (Fig. 4c) and 24 h (Fig. 4d) after peptide addition.
All cell viability studies were performed in the presence of FCS. Cells were seeded at 2.5–5 × 10^3 cells/well, depending on cell line, in 96-well plates (PAP assays: CHO-K1 at 3 × 10^3 cells/well; peptide cytotoxicity assays: CHO-K1 at 5 × 10^3 cells/well; Bouganin assay: CHO-K1 and CHO-K1/EGFR at 2.5 × 10^3 cells/well; ^DPMIα assays: T47D at 5 × 10^3 cells/well; Omomyc assays: all cell lines at 5 × 10^3 cells/well). In brief, adherent cells were allowed to adhere for 24 h prior to the addition of treatments whereas suspension cell lines were treated immediately following seeding. Following 2–48 h incubations with treatments, cell viability was measure by a variety of methods. Membrane integrity was assessed by the release of LDH into the media via the CytoTox-ONE reagent (Promega). Metabolic activity was measured either by resazurin reduction potential using PrestoBlue (Life Technologies) or by ATP activity using CellTitre-Glo (Promega). […] IC50 values were calculated using Prism (version 7.0a, GraphPad).

C57BL/10ScSn^mdx mice = assay: Exon skipping in vivo by RT-PCR and Western blot; design: species or system mouse; settings: five IP injections over two weeks, 4 nmoles per dose; RT-PCR / immunoblot; diaphragm, tibialis anterior, heart
Experimental: Exon skipping in vivo was evaluated at the (a, c) RNA and (b) protein level in the Duchenne muscular dystrophy mouse disease model. RNA was extracted from tissues of C57BL/10ScSn^mdx mice treated with five intra-peritoneal injections of CPP_PMO cargo over two weeks at 4 nmoles per dose (injected volume increased with increased weight of the mice). Pip6, a traditional carrier CPP for peptide-oligonucleotide conjugates in the mdx disease model of DMD^9, was tested in vivo in parallel for comparison. All samples were loaded onto the gel using normalization by myosin densitometry, to enable a quantitative comparison.^10
Tissues were sectioned (6 µm thickness) before adding lysis buffer. Otherwise exon skipping assays and RT-PCR detection were performed following the same protocols used for detection of exon skipping in vitro in myoblasts cells (see Methods of main text).
Samples were vortexed for 10 sec, sonicated at a setting of 30/100 (Sonics sonicator) for 6 x 1 sec pulses, heated at 95 °C for 5 min and centrifuged at 14,000rpm on a Beckman microfuge for 4 min before loading. Total protein was quantitated by BCA assay (Pierce). Average total protein concentration was 2.3 µg/µl. […] Coomassie stained bands were analysed using Bio1D software and the results were used as a loading control to provide equal loading for the western gel that followed. […]

C57BL/6J mice = assay: Serum parameters of kidney and liver toxicity in mice; type: in vivo, mouse; settings: 40 mg/kg/day IP for 7 days, n = 6
Experimental: To examine 1746c27 toxicity in vivo, a cohort of adult male C57BL/6J mice (n = 6) were treated with the CPP. Following approved standard preliminary toxicity testing guidelines (Food and Drug Administration, FDA, and European Medicines Agency, EMA), mice were injected intraperitoneally daily for 7 days with 40 mg/kg of 1746c27. After a further 8 days the mice were culled (on day 15) and serum was extracted and used to examine kidney and liver toxicity. Urea, creatinine, aspartate transaminase (AST) and alanine transaminase (ALT) concentrations were measured. […] ALT (p = 0.054) and creatinine (p = 0.01) levels were lower compared to untreated control mice, which supports the finding of minimal toxicity.
All mouse studies were approved by the Animal Ethics Committee of The University of Western Australia in accordance with the Australian Code of Practice for the Care and Use of Animals for Scientific Purposes (NH&MRC, 8th Edition, 2013). Studies were performed using adult male C57BL/6J mice weighing approximately 20 g. Mice were treated with 1746c27 (40 mg/kg/day intraperitoneally) for 7 days (day 1–7), followed by no treatment on days 8–15. On day 15, mice were anesthetized with intraperitoneal injection of pentobarbitone sodium (240 mg/kg), and their terminal blood collected. Serum was extracted and used to measure kidney and liver toxicity. Urea and creatinine concentration was assessed using QuantiChrom Urea and Creatinine assay kits, respectively (BioAssay Systems). Aspartate transaminase (AST) and alanine transaminase (ALT) concentration were measured using EnzyChrom Aspartate Transaminase and Alanine Transaminase assay kits, respectively (BioAssay Systems). All assays were performed as per manufacturer’s instructions, using a spectrophotometer (PowerWave XS).

Compound | IC50 (T47D cells) [µM] | effect on cell viability, in words (T47D (breast cancer)) | effect on cell viability, in words [1] | effect on cell viability, in words (AMO-1 (plasmacytoma)) | cytotoxic activity, cell viability (CHO-K1 cells) | exon 23 skipping in tissues, in words (C57BL/10ScSn^mdx mice) | toxicity in vivo, in words (C57BL/6J mice) | ALT Mean (C57BL/6J mice; serum day 15) [U/L] | AST Mean (C57BL/6J mice; serum day 15) [U/L] | Creatinine Mean (C57BL/6J mice; serum day 15) [mg/dL] | Urea Mean (C57BL/6J mice; serum day 15) [mg/dL]
Ac-PLKPKKPKTQEKKKKQPPKPKKPKTQEKKKKQPPKPKRGAS[dT][dN][dW][dY][dA][dN][dL][dE][dK][dL][dL][dR]-NH2 [1746_^DPMIα] | 9.1 | – | – | – | – | – | – | – | – | – | –
Ac-KKKKQPPKPKKPKTQEKKKKQPPKPKR-NH2 (N-terminus and C-terminus assumed) [1746c27] | – | no notable effect on cell viability | no notable effect on cell viability | no notable effect on cell viability | no measurable cytotoxicity | not detected | minimal evidence of toxicity | 59.73 | 84.98 | 0.33 | 50.99
CC(=O)NCC(=O)N[C@@H](CCCNC(=N)N)C(=O)N[C@@H](CCCCN)C(=O)N[C@@H](CCCCN)C(=O)N[C@@H](CCCNC(=N)N)C(=O)N[C@@H](CCCNC(=N)N)C(=O)N[C@@H](CCC(N)=O)C(=O)N[C@@H](CCCNC(=N)N)C(=O)N[C@@H](CCCNC(=N)N)C(=O)N[C@@H](CCCNC(=N)N)C(=O)NCC(=O)N[C@@H](C)C(=O)N[C@@H](CO)C(=O)N[C@@H](C(=O)N[C@H](CC(N)=O)C(=O)N[C@H](Cc1c[nH]c2ccccc12)C(=O)N[C@H](Cc1ccc(O)cc1)C(=O)N[C@H](C)C(=O)N[C@H](CC(N)=O)C(=O)N[C@H](CC(C)C)C(=O)N[C@H](CCC(=O)O)C(=O)N[C@H](CCCCN)C(=O)N[C@H](CC(C)C)C(=O)N[C@H](CC(C)C)C(=O)N[C@H](CCCNC(=N)N)C(N)=O)[C@H](C)O [TAT_^DPMIα, reference compound] (Ac-GRKKRRQRRRGAS[dT][dN][dW][dY][dA][dN][dL][dE][dK][dL][dL][dR]-NH2) | 36.6 | – | – | – | – | – | – | – | – | – | –
